Assay results: ChEMBL document CHEMBL5038591, “Identification of a Novel TAR RNA-Binding Protein 2 Modulator with Potential Therapeutic Activity against Hepatocellular Carcinoma” (J Med Chem, 2021)
Active and inactive are the calls of the source. No cut-off for these calls is given here.

Experiments:
SK-HEP1 [1] = test: Antiproliferative activity against human SK-HEP1 cells incubated for 24 hrs by alamar blue assay; format: functional, cell-based; settings: SK-HEP1, 24 h
[2] = Antiproliferative activity against human QSG7701 cells incubated for 24 hrs by alamar blue assay; format: functional, cell-based; settings: QSG7701, 24 h
MHCC97 [3] = test: Antitumor activity in human MHCC97 cells xenografted in SCID mouse assessed as suppression of tumor growth at 20 mg/kg, ip administered once every 3 day for 30 days by bioluminescence analysis; format: functional, organism-based; settings: time 30.0 day
MHCC97 [4] = test: Antimetastatic activity against human MHCC97 cells xenografted in SCID mouse assessed as decrease in liver metastasis at 40 mg/kg, ip administered once every 3 days and measured after 10 days; format: functional, organism-based; settings: time 10.0 day
[5] = Toxicity in SCID mouse xenografted with human MHCC97 cells assessed as increase in body weight at 40 mg/kg, ip administered once every 3 day for 30 days; format: organism-based; settings: in vivo, 720 h, time 30 day
MHCC97 [6] = test: Antitumor activity in human MHCC97 cells xenografted in SCID mouse assessed as reduction in infiltration of inflammatory cells in left middle lobe of liver at 20 mg/kg, ip measured after 30 days by H and E staining based immunohistochemical analysis; format: functional, organism-based; settings: time 30.0 day
MHCC97 [7] = test: Antitumor activity against human MHCC97 cells xenografted in SCID mouse assessed as decrease in tumor size at 20 mg/kg, ip administered once every 3 days and measured after 10 days; format: functional, organism-based; settings: time 10.0 day
HeLa [8] = test: Antiproliferative activity against human HeLa cells assessed as increase in miR-21 biogenesis level measured after 24 hrs by luciferase assay; format: functional, cell-based
SK-HEP1 [9] = test: Antiproliferative activity against human SK-HEP1 cells at 20 uM incubated for 24 hrs by alamar blue assay; format: functional, cell-based
MHCC97 [10] = test: Antiproliferative activity against human MHCC97 cells at 20 uM incubated for 24 hrs by alamar blue assay; format: functional, cell-based
HepG2 = test: Antiproliferative activity against human HepG2 cells at 20 uM incubated for 24 hrs by alamar blue assay; format: functional, cell-based
Huh-7 = test: Antiproliferative activity against human Huh-7 cells at 20 uM incubated for 24 hrs by alamar blue assay; format: functional, cell-based
HeLa [11] = test: Antiproliferative activity against human HeLa cells at 20 uM incubated for 24 hrs by alamar blue assay; format: functional, cell-based
SK-HEP1 [12] = test: Antiproliferative activity against human SK-HEP1 cells at 20 uM measured by crystal violet dye based colony formation assay; format: functional, cell-based
SK-HEP1 [13] = test: Inhibition of cell migration in human SK-HEP1 cells assessed as reduction in cell migration at 20 uM measured after 12 hrs using crystal violet staining inverted microscope based transwell assay; format: functional
Homo sapiens = organism: Homo sapiens; test: Binding affinity to PIWIL3 (unknown origin) at 30 uM incubated for 2 hrs by pull down assay
[14] = target: DNA topoisomerase 2-beta (Homo sapiens) (UniProt Q02880); test: Binding affinity to TOP2B (unknown origin) at 30 uM incubated for 2 hrs by pull down assay
DNA topoisomerase 2-beta (Homo sapiens), sequence (Q02880 whole entry): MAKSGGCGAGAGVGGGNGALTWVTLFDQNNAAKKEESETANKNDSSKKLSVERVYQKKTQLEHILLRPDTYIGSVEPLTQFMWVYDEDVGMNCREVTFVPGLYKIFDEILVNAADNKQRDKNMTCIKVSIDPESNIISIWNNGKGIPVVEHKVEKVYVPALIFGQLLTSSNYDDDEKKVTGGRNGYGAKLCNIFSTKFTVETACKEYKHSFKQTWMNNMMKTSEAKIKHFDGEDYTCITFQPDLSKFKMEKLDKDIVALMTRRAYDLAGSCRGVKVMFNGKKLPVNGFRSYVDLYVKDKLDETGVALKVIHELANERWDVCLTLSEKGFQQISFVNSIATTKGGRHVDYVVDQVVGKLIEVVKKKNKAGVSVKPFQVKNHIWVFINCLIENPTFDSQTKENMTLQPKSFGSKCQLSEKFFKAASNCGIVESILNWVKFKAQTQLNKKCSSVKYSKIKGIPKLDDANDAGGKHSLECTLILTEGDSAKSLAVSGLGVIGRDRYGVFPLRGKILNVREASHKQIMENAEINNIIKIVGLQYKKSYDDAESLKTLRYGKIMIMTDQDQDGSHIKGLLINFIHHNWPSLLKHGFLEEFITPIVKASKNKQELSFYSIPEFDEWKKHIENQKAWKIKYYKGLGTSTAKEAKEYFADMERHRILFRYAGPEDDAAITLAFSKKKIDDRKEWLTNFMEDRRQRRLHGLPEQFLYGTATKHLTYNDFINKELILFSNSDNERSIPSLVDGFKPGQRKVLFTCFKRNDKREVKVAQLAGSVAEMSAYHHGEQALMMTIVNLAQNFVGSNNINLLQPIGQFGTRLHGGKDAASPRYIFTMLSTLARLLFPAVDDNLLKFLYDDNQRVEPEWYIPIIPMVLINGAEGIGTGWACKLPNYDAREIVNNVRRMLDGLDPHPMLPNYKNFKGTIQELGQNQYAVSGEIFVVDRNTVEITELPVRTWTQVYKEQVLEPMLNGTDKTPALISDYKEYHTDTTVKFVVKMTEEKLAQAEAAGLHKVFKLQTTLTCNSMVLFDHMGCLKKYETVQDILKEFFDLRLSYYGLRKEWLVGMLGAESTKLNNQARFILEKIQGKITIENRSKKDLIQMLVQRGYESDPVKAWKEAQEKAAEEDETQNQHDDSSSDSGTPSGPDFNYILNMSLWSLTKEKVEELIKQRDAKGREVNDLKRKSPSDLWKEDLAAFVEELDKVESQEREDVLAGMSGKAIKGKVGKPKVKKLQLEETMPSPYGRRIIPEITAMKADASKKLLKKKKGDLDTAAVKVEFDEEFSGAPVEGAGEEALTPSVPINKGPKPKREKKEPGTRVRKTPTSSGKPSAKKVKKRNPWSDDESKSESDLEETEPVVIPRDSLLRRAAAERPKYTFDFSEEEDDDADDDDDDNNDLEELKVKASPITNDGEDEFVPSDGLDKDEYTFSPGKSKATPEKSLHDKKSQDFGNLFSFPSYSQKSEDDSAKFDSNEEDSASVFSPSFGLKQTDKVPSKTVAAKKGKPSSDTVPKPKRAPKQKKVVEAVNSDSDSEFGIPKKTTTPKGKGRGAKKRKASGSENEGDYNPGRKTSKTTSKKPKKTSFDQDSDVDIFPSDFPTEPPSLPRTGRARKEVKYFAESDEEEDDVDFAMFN

SK-HEP1 [15] = test: Antiproliferative activity against human SK-HEP1 cells assessed as increase in miR-106b-5p level at 20 uM by qRT-PCR analysis; format: functional, cell-based
SK-HEP1 [16] = test: Antiproliferative activity against human SK-HEP1 cells assessed as increase in miR-21-5p level at 20 uM by qRT-PCR analysis; format: functional, cell-based
SK-HEP1 [17] = test: Antiproliferative activity against human SK-HEP1 cells assessed as increase in miR-26a-5p level at 20 uM by qRT-PCR analysis; format: functional, cell-based
SK-HEP1 [18] = test: Antiproliferative activity against human SK-HEP1 cells assessed as increase in miR-22-5p level at 20 uM by qRT-PCR analysis; format: functional, cell-based
SK-HEP1 [19] = test: Antiproliferative activity against human SK-HEP1 cells assessed as decrease in miR135a-5p level at 20 uM by qRT-PCR analysis; format: functional, cell-based
SK-HEP1 [20] = test: Antiproliferative activity against human SK-HEP1 cells assessed as decrease in miR-30a-5p level at 20 uM by qRT-PCR analysis; format: functional, cell-based
MHCC97 [21] = test: Antimetastatic activity against human MHCC97 cells xenografted in SCID mouse assessed as decrease in liver metastasis at 20 mg/kg, ip administered once every 3 days and measured after 10 days; format: functional, organism-based; settings: time 10.0 day

IC50 (SK-HEP1 [1]) [µM]	Compound	IC50 [2] [µM]	other results
31.7	COC(=O)c1cc2c(c(OC)c1-c1ccc(N(C)S(=O)(=O)c3ccc(F)cc3)cc1)OCO2	67.9	–
34.2	COC(=O)c1cc2c(c(OC)c1-c1ccc(N(C)S(=O)(=O)c3ccc([N+](=O)[O-])cc3)cc1)OCO2	69.3	–
19.4	COC(=O)c1cc2c(c(OC)c1-c1ccc(N(C)C(=O)c3ccccc3)cc1)OCO2	48.4	IC50 (HeLa [8]): 13 µM; Activity (SK-HEP1 [9]): Active; Activity (MHCC97 [10]): Active; Activity (HepG2): Active; Activity (Huh-7): Active; Activity (HeLa [11]): Active
29.9	COC(=O)c1cc2c(c(OC)c1-c1ccc(N(C)C)cc1)OCO2	68.5	–
47	COC(=O)c1cc2c(c(OC)c1-c1ccc(N(C)S(C)(=O)=O)cc1)OCO2	75.9	–
28.7	COC(=O)c1cc2c(c(OC)c1-c1ccc(N(C)S(=O)(=O)c3ccc(Br)cc3)cc1)OCO2	62.4	–
26.7	COC(=O)c1cc2c(c(OC)c1-c1ccc(N(C)S(=O)(=O)c3ccccc3)cc1)OCO2	61.4	IC50 (HeLa [8]): 19.5 µM
> 100	COC(=O)c1cc2c(c(OC)c1-c1ccc(N(C)C(=O)CN)cc1)OCO2	> 100	–

The remaining lines, values behind:

Compound	IC50 (SK-HEP1 [1]) [µM]	IC50 [2] [µM]	other results
COC(=O)c1cc2c(c(OC)c1-c1ccc(N(C)C(=O)CNC(=O)OC(C)(C)C)cc1)OCO2	39.6	63.2	–
CNCC(=O)N(C)c1ccc(-c2c(C(=O)OC)cc3c(c2OC)OCO3)cc1	> 100	> 100	–
CNC(=O)c1cc(Oc2ccc(NC(=O)Nc3ccc(Cl)c(C(F)(F)F)c3)cc2)ccn1 [SORAFENIB]	–	–	Activity (MHCC97 [3]): Active; Activity (MHCC97 [4]): Active; Activity [5]: Toxic; Activity (MHCC97 [6]): Active; Activity (MHCC97 [7]): Active
CCN(CC)CCNC(=O)c1cc2c(c(OC)c1-c1ccc(N(C)C)cc1)OCO2	> 100	> 100	–
COc1c2c(cc(C(=O)NCc3ccccc3)c1-c1ccc(N(C)C)cc1)OCO2	23.6	56.4	IC50 (HeLa [8]): 21.9 µM
CNc1ccc(-c2c(C(=O)OC)cc3c(c2OC)OCO3)cc1Cl	22.7	50.3	–
COc1cccc(NC(=O)c2cc3c(c(OC)c2-c2ccc(N(C)C)cc2)OCO3)c1	31.6	64.4	–
COc1c2c(cc(C(=O)Nc3ccccc3)c1-c1ccc(N(C)C)cc1)OCO2	38.4	58.5	–
CNc1ccc(-c2c(C(=O)OC)cc3c(c2OC)OCO3)cc1	24.4	67.2	IC50 (HeLa [8]): 15.6 µM; Activity (SK-HEP1 [12]): Active; inhibition (SK-HEP1 [13]): Active
COC(=O)c1cc2c(c(OC)c1-c1ccc(N(C)C(=O)CCCCCNC(=O)CCCC[C@@H]3SC[C@@H]4NC(=O)N[C@@H]43)cc1)OCO2	–	–	Activity (SK-HEP1 [12]): Active; inhibition (SK-HEP1 [13]): Active; Activity (Homo sapiens): inactive; Activity [14]: inactive
COC(=O)c1cc2c(c(OC)c1-c1ccc(N(C)C(=O)CN(C)C(=O)OC(C)(C)C)cc1)OCO2	89.7	> 100	–
CCn1cc(C(=O)O)c(=O)c2cc(F)c(N3CCNCC3)nc21 [ENOXACIN]	25	72.4	IC50 (HeLa [8]): 25.8 µM; Activity (SK-HEP1 [15]): Active; Activity (SK-HEP1 [16]): Active; Activity (SK-HEP1 [17]): Active; Activity (SK-HEP1 [18]): Active; Activity (SK-HEP1 [19]): inactive; Activity (SK-HEP1 [20]): inactive; Activity (MHCC97 [3]): Active; Activity (MHCC97 [21]): inactive; Activity (MHCC97 [6]): Active; Activity (MHCC97 [7]): Active
COc1c2c(cc(C(=O)Nc3ccccc3I)c1-c1ccc(N(C)C)cc1)OCO2	35.8	56.9	–
COC(=O)c1cc2c(c(OC)c1-c1ccc(N(C)C(=O)[C@H](C)N)cc1)OCO2	64.7	74.2	–
COC(=O)c1cc2c(c(OC)c1-c1ccc(N(C)C(=O)[C@H](C)NC(=O)OC(C)(C)C)cc1)OCO2	40.9	59.5	–
